Data on four compounds can be found in ChEMBL document CHEMBL4393661, “PRODRUGS FOR NITROREDUCTASE BASED CANCER THERAPY- 2: Novel amide/Ntr combinations targeting PC3 cancer cells” (Eur J Med Chem, 2019).

This test deals with T1, Putative nitroreductase (Staphylococcus saprophyticus subsp. saprophyticus (strain ATCC 15305 / DSM20229 / NCIMB 8711 / NCTC 7292 / S-41)) (UniProt Q4A0P1).
T1 sequence (whole entry): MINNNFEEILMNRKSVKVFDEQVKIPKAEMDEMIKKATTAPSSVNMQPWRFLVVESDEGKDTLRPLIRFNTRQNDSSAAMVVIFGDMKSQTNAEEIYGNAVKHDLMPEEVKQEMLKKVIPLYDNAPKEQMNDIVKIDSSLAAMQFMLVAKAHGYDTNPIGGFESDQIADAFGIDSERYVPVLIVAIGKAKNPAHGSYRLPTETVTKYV
Description: Substrate activity at Staphylococcus saprophyticus nitroreductase assessed as ratio of Kcat/Km up to 80 mM using NADH as cofactor relative to CB1954/NfsB.
For the compound `NC(=O)c1cc(N(CCCl)CCCl)c([N+](=O)[O-])cc1[N+](=O)[O-]`, the fold change (FC) was 1.67.
Take `CC(=O)Nc1cc([N+](=O)[O-])cc([N+](=O)[O-])c1`: the fold change (FC) amounted to 17.6.
The figure for `CCN(C(C)=O)c1cc([N+](=O)[O-])cc([N+](=O)[O-])c1` is 20.9; for `NC(=O)c1cc(N2CC2)c([N+](=O)[O-])cc1[N+](=O)[O-]` it is 0.38.
